Experimental data from patent US8263642B2, “Antimicrobial compounds and methods of use thereof” (Vanderbilt University, priority 2008, dated 2012).

Columns and labels:
[1] = system: hrtAB-driven expression of the xylE reporter gene; assay: XylE reporter assay (hrtAB promoter-xylE), Newman; type: cell-based, Staphylococcus aureus; details: for XylE (0.05): level of XylE induction at 0.05 uM of the compound; for XylE (0.5): level of XylE induction at 0.5 uM of the compound; for XylE (5.0): level of XylE induction at 5.0 uM of the compound; for XylE (50.0): level of XylE induction at 50.0 uM of the compound
Method in brief: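 S. aureus carrying hrtAB promoter-xylE fusion in pOS1 grown O/N at 37° C in TSB with chloramphenicol, lysed with lysostaphin. Lysate XylE activity read as 2-hydroxymuconic semialdehyde formation from 0.2 mM pyrocatechol (A375, every minute for 30 minutes), normalised to BCA protein; unit = 1 nmol/min/mg at 30° C.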

[2] = system: HssRS-dependent hrtAB expression; assay: Luminescence-based assay to monitor HssRS-dependent hrtAB expression (phrtABlux reporter), Newman; type: cell-based, Staphylococcus aureus; details: Newman; for activation at 0.0825 µM: Staphylococcus aureus, NEWMAN, read-out: % Lumi, luminescence induced by the compound compared to the heme control (82.5 nM) in the same plate; for Luminescence: raw luminescence value obtained in a luminometer
Method in brief: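 S. aureus Newman wild type or ΔhssR carrying a hrtAB promoter–luxCDABE reporter (phrtABlux), grown in TSB with 10 μg/ml chloramphenicol at 37 °C. Light output read against 82.5 nM heme as the in-plate positive control. Activity given as % of heme-induced luminescence.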

Structure (SMILES): COc1ccc(-c2cc(-c3ccc(OC)cc3O)n[nH]2)cc1
- XylE (0.05) [1]: 0.06
- XylE (0.5) [1]: 0.02
- XylE (5.0) [1]: 0.7
- XylE (50.0) [1]: 4
- activation at 0.0825 µM [2]: 238%
- Luminescence [2]: 1482

Structure (SMILES): Cc1ccc(NS(=O)(=O)c2ccc3c(c2)Cc2cc(S(=O)(=O)Nc4ccc(C)cc4)ccc2-3)cc1 [drawing 74]
- XylE (0.05) [1]: 1
- XylE (0.5) [1]: 1
- XylE (5.0) [1]: 15
- XylE (50.0) [1]: 14
- Luminescence [2]: 7328

Structure (SMILES): Oc1c(-c2cc(-c3ccco3)[nH]n2)ccc2ccccc12 [drawing 65]
- XylE (0.05) [1]: 0.4
- XylE (0.5) [1]: 0.07
- XylE (5.0) [1]: 12
- XylE (50.0) [1]: 5
- activation at 0.0825 µM [2]: 630%
- Luminescence [2]: 2622

Structure (SMILES): O=C(N/N=C/c1ccc(-c2cccc(C(F)(F)F)c2)o1)C1COc2ccccc2O1 (stereo not drawn) [drawing 49]
- XylE (0.05) [1]: 0.07
- XylE (0.5) [1]: 0
- XylE (5.0) [1]: 0.6
- XylE (50.0) [1]: 0.09
- activation at 0.0825 µM [2]: 152%
- Luminescence [2]: 558

Structure (SMILES): Cc1ccc(O)c(NC(=O)c2nn3c(c2Br)NC(c2ccco2)CC3C(F)(F)F)c1 (stereo not drawn) [drawing 29]
- XylE (0.05) [1]: 0.05
- XylE (0.5) [1]: 0.06
- XylE (5.0) [1]: 5
- XylE (50.0) [1]: 3
- activation at 0.0825 µM [2]: 307%
- Luminescence [2]: 1949

Structure (SMILES): CC(NC(=O)C1(c2ccccc2)CCCC1)C1COc2ccccc2O1 (stereo not drawn) [drawing 45]
- XylE (0.05) [1]: 0.04
- XylE (0.5) [1]: 0.1
- XylE (5.0) [1]: 0.7
- XylE (50.0) [1]: 0.05
- Luminescence [2]: 757

Structure (SMILES): COc1ccccc1NC1=C/C(=N\S(=O)(=O)c2ccc(Br)cc2)c2ccccc2C1=O [drawing 81]
- XylE (0.05) [1]: 1
- XylE (0.5) [1]: 1
- XylE (5.0) [1]: 1
- XylE (50.0) [1]: 1
- activation at 0.0825 µM [2]: 510%
- Luminescence [2]: 2270

Structure (SMILES): Oc1c(-c2cc(-c3ccco3)[nH]n2)ccc2ccccc12 [drawing 25]
- XylE (0.05) [1]: 0.07
- XylE (0.5) [1]: 0.06
- XylE (5.0) [1]: 0.2
- XylE (50.0) [1]: 1000
- Luminescence [2]: 2622

Structure (SMILES): COc1ccc(C(=O)Nc2sc(-c3ccccc3)cc2C(N)=O)cc1
- XylE (0.05) [1]: 0.07
- XylE (0.5) [1]: 0.09
- XylE (5.0) [1]: 4
- XylE (50.0) [1]: 6
- activation at 0.0825 µM [2]: 244%
- Luminescence [2]: 1781

Structure (SMILES): CCCN1C(=O)/C(=C2/C(=O)N(CC(=O)Nc3ccc(Cl)cc3)c3ccccc32)SC1=S [drawing 67]
- XylE (0.05) [1]: 0.02
- XylE (0.5) [1]: 0.04
- XylE (5.0) [1]: 0.05
- XylE (50.0) [1]: 1
- Luminescence [2]: 98

Structure (SMILES): Fc1ccc(CNC(=S)Nc2ccc(Oc3ccccc3)cc2)cc1
- XylE (0.05) [1]: 0.06
- XylE (0.5) [1]: 0.05
- XylE (5.0) [1]: 0.2
- XylE (50.0) [1]: 1
- activation at 0.0825 µM [2]: 362%
- Luminescence [2]: 1570

Structure (SMILES): CC(C)(C)c1ccc(O)c(NC(=S)NC(=O)c2cc3ccccc3o2)c1
- XylE (0.05) [1]: 0.09
- XylE (0.5) [1]: 0.8
- XylE (5.0) [1]: 0.9
- XylE (50.0) [1]: 1
- activation at 0.0825 µM [2]: 101%
- Luminescence [2]: 419

Structure (SMILES): CC(NC(=O)C1(c2ccccc2)CCCC1)C1COc2ccccc2O1 (stereo not drawn) [drawing 26]
- XylE (0.05) [1]: 0.06
- XylE (0.5) [1]: 0.05
- XylE (5.0) [1]: 0.7
- XylE (50.0) [1]: 200
- activation at 0.0825 µM [2]: 266%
- Luminescence [2]: 757

Structure (SMILES): COc1ccc(Br)cc1C(=O)NC(=S)Nc1cc(C)c(C)cc1O [drawing 63]
- XylE (0.05) [1]: 0.08
- XylE (0.5) [1]: 0.8
- XylE (5.0) [1]: 0.9
- XylE (50.0) [1]: 2
- Luminescence [2]: 946

Structure (SMILES): O=C(N/N=C/c1ccc(-c2ccc(Br)cc2)o1)C1COc2ccccc2O1 (stereo not drawn) [drawing 48]
- XylE (0.05) [1]: 0.02
- XylE (0.5) [1]: 0.08
- XylE (5.0) [1]: 0.7
- XylE (50.0) [1]: 0.2
- activation at 0.0825 µM [2]: 133%
- Luminescence [2]: 485

Structure (SMILES): Cc1cccc(C(=O)Nc2ccc(-c3nc4ccccc4o3)cc2)c1 [drawing 43]
- XylE (0.05) [1]: 0.09
- XylE (0.5) [1]: 0.7
- XylE (5.0) [1]: 1
- XylE (50.0) [1]: 0.09
- Luminescence [2]: 837

Structure (SMILES): COc1ccc(-c2cc(-c3ccc(C)cc3)[nH]n2)c(O)c1
- XylE (0.05) [1]: 0.08
- XylE (0.5) [1]: 0.02
- XylE (5.0) [1]: 0.07
- XylE (50.0) [1]: 0.09
- activation at 0.0825 µM [2]: 180%
- Luminescence [2]: 1122
